Assay results from ChEMBL document CHEMBL1201862, “PubChem BioAssay data set” (2004).
Activity calls are given as the source filed them.

How the values were obtained:
[1] = target: T1, Apoptotic protease-activating factor 1 (Homo sapiens, UniProt O14727); assay type: functional
T1 sequence (O14727 whole entry): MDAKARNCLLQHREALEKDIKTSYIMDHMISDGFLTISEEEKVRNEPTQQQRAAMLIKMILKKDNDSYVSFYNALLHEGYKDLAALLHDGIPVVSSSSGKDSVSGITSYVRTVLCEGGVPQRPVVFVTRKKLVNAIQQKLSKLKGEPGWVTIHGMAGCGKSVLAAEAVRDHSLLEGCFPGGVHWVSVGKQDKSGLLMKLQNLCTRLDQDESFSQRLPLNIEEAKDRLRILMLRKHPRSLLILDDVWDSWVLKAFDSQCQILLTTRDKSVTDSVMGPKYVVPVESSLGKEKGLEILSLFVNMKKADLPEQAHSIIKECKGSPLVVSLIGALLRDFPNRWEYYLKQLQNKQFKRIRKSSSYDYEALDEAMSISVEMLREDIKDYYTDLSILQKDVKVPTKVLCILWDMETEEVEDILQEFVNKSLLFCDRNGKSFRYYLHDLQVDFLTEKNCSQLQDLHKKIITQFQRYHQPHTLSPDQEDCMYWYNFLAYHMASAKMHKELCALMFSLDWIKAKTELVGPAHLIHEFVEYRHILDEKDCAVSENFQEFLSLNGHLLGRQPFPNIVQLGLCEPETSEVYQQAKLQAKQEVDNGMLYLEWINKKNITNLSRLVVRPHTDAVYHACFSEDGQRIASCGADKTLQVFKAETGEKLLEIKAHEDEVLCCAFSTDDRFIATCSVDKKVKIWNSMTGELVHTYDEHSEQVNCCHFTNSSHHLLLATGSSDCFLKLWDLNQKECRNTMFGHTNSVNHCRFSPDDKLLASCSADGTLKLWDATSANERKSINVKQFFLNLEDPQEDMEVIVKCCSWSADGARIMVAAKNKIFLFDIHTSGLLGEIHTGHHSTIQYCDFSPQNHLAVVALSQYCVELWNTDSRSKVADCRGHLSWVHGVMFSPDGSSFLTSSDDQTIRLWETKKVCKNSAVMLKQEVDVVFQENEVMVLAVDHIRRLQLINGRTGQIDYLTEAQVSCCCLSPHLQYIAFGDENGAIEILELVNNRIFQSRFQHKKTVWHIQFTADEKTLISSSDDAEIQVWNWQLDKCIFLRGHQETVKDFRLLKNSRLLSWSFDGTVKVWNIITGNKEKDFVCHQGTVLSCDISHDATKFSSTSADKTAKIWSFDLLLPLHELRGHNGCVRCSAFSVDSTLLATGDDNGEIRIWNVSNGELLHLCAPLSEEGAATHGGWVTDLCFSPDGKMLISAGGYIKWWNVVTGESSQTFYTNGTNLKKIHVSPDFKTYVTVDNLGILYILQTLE

[2] = test system: Streptococcus sp. 'group A'; assay: Streptococcus pyogenes SK(-)GAS viability under kanamycin – luminescence, BacTiterGlo, confirmation, counter-screen for streptokinase expression inhibitor project, dose response (AID 1900); assay type: functional, organism-based
[3] = viability of HCT116 lacking mutant beta-catenin – cell-based, human colon tumor, dose response (AID 1045); assay type: functional;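 also: HCT116 colon tumor cells with beta catenin knocked out; cells exposed to compound for 60 hours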
[4] = viability of PTEN-deleted HCT116 cells – cell-based, HCT116 PTEN knockout, dose response (AID 1047); assay type: functional;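 also: HCT116 colon tumor cells with PTEN knocked out; cells exposed to compound for 60 hours before readout; potency for loss of cell viability measured by luminescence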
INS1 = assay: INS-1E survival protection against cytokine death – cell-based, luminescence, retest, dose response (AID 449756); assay type: functional; settings: Rattus norvegicus;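 also: cell death triggered by IL-1 beta plus TNF-alpha plus IFN-gamma mixture; protective hits raise ATP signal compared with cytokine alone wells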
[5] = target: T2, Histone-lysine N-methyltransferase NSD2 (Homo sapiens, UniProt O96028); assay type: biochemical
T2 sequence (O96028 whole entry): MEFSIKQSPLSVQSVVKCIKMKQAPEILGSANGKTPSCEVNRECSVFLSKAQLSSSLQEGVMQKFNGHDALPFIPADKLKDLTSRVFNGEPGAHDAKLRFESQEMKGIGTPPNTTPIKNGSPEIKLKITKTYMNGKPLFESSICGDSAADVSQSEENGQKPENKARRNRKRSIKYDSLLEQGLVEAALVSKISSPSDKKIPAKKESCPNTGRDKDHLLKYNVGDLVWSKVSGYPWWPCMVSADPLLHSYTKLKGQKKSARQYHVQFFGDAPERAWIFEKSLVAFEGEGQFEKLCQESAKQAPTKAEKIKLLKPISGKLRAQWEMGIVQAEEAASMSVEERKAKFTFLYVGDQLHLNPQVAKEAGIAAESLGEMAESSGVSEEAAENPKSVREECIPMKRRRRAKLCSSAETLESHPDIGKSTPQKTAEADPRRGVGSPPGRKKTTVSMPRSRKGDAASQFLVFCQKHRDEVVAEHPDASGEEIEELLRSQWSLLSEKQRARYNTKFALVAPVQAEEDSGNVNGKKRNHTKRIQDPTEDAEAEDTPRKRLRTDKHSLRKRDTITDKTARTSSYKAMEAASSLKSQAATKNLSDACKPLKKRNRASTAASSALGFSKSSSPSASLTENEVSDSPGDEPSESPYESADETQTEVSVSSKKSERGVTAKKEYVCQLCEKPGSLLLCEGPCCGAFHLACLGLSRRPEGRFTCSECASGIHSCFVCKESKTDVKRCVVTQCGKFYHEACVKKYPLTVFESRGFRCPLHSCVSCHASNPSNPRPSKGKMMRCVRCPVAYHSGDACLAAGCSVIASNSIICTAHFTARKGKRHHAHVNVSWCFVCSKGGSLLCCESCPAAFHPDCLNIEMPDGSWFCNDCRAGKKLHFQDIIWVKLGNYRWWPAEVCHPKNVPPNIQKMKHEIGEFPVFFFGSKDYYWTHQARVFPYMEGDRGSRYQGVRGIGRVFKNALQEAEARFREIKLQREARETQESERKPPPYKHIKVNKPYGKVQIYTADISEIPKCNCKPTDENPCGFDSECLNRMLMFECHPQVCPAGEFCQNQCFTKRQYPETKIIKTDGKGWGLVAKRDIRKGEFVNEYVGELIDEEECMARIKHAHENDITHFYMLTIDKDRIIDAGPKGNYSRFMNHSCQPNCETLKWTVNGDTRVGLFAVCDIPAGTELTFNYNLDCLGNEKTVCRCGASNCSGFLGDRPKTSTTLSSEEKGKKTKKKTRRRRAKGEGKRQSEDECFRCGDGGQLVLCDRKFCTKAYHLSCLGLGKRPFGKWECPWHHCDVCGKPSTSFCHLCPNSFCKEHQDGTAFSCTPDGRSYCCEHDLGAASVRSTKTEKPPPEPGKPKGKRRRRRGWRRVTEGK

[6] = target: Transitional endoplasmic reticulum ATPase (Homo sapiens, UniProt P55072); assay: p97 ATPase inhibitors, dose response, biochemical (AID 1534)
Transitional endoplasmic reticulum ATPase (Homo sapiens, UniProt P55072), sequence (P55072 whole entry): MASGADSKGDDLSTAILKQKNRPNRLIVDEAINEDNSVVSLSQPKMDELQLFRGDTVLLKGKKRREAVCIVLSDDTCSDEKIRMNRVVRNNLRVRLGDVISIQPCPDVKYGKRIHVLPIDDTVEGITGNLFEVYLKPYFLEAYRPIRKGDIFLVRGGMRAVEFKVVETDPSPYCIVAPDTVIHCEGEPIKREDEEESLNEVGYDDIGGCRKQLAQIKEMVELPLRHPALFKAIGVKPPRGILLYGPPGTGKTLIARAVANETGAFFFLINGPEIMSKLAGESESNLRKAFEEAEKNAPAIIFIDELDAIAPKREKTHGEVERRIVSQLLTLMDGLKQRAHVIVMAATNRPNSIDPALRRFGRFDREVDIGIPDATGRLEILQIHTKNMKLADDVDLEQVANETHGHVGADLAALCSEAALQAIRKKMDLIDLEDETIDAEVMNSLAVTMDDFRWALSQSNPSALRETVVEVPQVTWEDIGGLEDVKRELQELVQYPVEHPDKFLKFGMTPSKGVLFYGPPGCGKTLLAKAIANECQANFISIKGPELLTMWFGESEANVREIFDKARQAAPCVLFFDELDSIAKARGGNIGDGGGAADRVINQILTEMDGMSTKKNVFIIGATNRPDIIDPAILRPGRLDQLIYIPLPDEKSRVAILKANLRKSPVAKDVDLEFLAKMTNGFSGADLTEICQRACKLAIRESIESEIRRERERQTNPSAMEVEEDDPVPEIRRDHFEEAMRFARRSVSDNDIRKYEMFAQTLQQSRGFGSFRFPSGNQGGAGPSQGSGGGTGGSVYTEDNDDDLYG

[7] = target: Transitional endoplasmic reticulum ATPase (Homo sapiens, UniProt P55072, C522A); assay: C522A mutant p97 ATPase inhibitors, dose response, counter-screen for p97 inhibitor project, biochemical, luminescence (AID 1544)
Transitional endoplasmic reticulum ATPase (Homo sapiens, UniProt P55072, C522A), sequence (P55072 2-806 C522A limits assumed): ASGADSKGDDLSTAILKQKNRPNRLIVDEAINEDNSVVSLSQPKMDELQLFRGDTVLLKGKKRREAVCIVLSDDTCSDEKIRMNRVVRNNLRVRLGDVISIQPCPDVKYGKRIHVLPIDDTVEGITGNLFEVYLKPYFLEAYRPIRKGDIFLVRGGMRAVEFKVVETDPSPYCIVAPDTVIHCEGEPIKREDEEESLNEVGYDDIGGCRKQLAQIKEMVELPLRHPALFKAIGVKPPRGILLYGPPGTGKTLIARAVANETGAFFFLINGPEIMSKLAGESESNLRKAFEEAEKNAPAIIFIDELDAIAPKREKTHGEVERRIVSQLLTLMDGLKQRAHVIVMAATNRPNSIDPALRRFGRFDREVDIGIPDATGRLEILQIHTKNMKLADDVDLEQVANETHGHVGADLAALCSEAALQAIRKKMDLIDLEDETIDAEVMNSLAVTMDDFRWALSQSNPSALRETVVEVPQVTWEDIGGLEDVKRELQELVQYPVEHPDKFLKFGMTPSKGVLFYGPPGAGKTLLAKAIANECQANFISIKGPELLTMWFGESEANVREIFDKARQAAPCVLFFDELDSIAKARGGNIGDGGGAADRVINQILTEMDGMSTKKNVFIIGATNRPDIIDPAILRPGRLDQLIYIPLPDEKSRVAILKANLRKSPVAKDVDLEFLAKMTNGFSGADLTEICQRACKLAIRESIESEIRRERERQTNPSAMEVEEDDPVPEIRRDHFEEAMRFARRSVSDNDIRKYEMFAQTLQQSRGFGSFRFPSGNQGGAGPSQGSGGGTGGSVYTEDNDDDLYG

Row | Structure (SMILES) | IC50 [1] | EC50 [3] | EC50 [4] | AC50 [5] | further results
1 | O=C1c2cc(F)ccc2-n2c1nc1ccccc1c2=O | 3.8 µM (active) | – | – | – | –
2 | CCOC(=O)C1=C(c2ccc(OC)cc2)C(=O)c2ccccc2C1=O | – | 2.33 µM (active) | 3.57 µM (active) | – | EC50 [2]: 1.51 µM (active); AC50 (INS1): 2.2 µM (active)
3 | COCCCNC(=O)c1ccc2c3c(onc13)-c1ccccc1C2=O | 15.7 µM (active) | – | – | > 20 µM (inactive) | –
4 | O=C1C=C(N(CCO)Cc2ccccc2)c2ccccc2C1=O | – | – | – | 1.2 µM (active) | –
5 | CCC(=O)OCCNc1cc(Sc2nccn2C)c2nonc2c1[N+](=O)[O-] | – | 3.98 µM (active) | 4.83 µM (active) | – | –
6 | CCCCn1c(NC(=O)c2ccccc2Cl)c(C#N)c2nc3ccccc3nc21 | 13.7 µM (active) | – | – | 2.68 µM (active) | IC50 [6]: > 50 µM (not active); IC50 [7]: > 50 µM (not active)
7 | CCc1ccc(OCC(=O)N/N=C2\CC(=O)c3ccccc32)cc1 | 18.5 µM (active) | 11.6 µM (active) | 10.2 µM (active) | – | –
8 | O=C1C(=O)c2ccccc2-c2ccccc21 [9,10-PHENANTHRENEQUINONE] | 0.549 µM (active) | – | – | – | IC50 [6]: > 50 µM (not active); EC50 [2]: 1.33 µM (active); IC50 [7]: > 50 µM (not active); AC50 (INS1): 1.01 µM (active)
